This is an account of results in patent EP0174833A2, “Triazoloquinoline derivatives” (MAY & BAKER LIMITED, priority 1984, dated 1986).

Molecules are shown by their SMILES. Where only a bound is given, the exact number is not on record here.

In one experiment the test system is lipoxygenase. Briefly: lipoxygenase inhibition in vitro. In kind it is biochemical. The note with it: concentration 0.0001M, 100 µM.
As to `CCOC(=O)C(=CNc1ccc2c(c1)c(C)cc1nnc(-c3ccccc3)n12)C(=O)OCC` [A, 7-[2,2-bis(ethoxycarbonyl)ethen-l-ylamino]-5-methyl-1-phenyl-1,2,4-triazolo[4,3-a]quinoline], the “% inhibition of lipoxygenase” value was determined as 100%.
The same measure, in the same setting: the result for `CCOC(=O)C(=CNc1ccc2c(c1)c(C)cc1nnc(-c3ccc(C)cc3)n12)C(=O)OCC` [B, 7-[2,2-bis(ethoxycarbonyl)ethen-l-ylamino]-5-methyl-l-(4-methylphenyl)-1,2,4-triazolo-[4,3-a]quinoline] reads 100%; that for `CCOC(=O)C(=CNc1ccc2c(c1)c(C)cc1nnc(-c3ccc(C(C)(C)C)cc3)n12)C(=O)OCC` [D, 1-(4-tert-butylphenyl)-7-[2,2-bis(ethoxycarbonyl)ethen-1-ylamino)-5-methyl-1,2,4-triazolo[4,3-a]quinoline], 98%; that for `CCOC(=O)C(=CNc1ccc(-c2nnc3cc(C)c4ccccc4n23)cc1)C(=O)OCC` [E, 1-[4-{2,2-bis(ethoxycarbonyl)ethen-1-yl-amino}phenyl]-5-methyl-1,2,4-triazolo[4,3-a]-quinoline], 50%.

A further experiment has as its system mouse macrophage cells. Briefly: reduction of the inhibition of migration of incubated macrophage cells after oral dosing (similar to Likhite et al.). In kind it is in vivo. The note with it: mice, twice administered orally, one hour before and four hours after antigen, dose each time that would reduce by 50% the inhibition of macrophage migration. As for the experimental part: For example, from tests in mice it was calculated that compounds of formula I, when twice administered orally, one hour before and four hours after the administration of antigen, each time at the doses shown in the following Table I, would reduce by 50% the inhibition of migration of incubated mouse macrophage cells measured in a manner similar to that described by Likhite et al., Cellular Immunology, Vol. 5, 1972, page 377. This is a measure of antagonism or reduction of the levels of lymphokines and is indicative of utility in the treatment of arthritic patients.
Compound `CCOC(=O)C(=CNc1ccc2c(c1)c(C)cc1nnc(-c3ccccc3)n12)C(=O)OCC` [A, 7-[2,2-bis(ethoxycarbonyl)ethen-l-ylamino]-5-methyl-1-phenyl-1,2,4-triazolo[4,3-a]quinoline] had a median effective dose (ED50) of 7 mg/kg.
Same read-out and setting: the result for `CCOC(=O)C(=CNc1ccc2c(c1)c(C)cc1nnc(-c3ccc(OC)cc3)n12)C(=O)OCC` [C, 7-[2,2-bis(ethoxycarbonyl)ethen-l-ylamino]-1-(4-methoxyphenyl)-5-methyl-1,2,4-triazolo-[4,3-a]quinoline] reads below 10 mg/kg.
